Assay results: PMC9612166 (Molecules, 2022)
Where two headings read alike, the source gives them in different places.

What was measured:
human Topo I = biological target: T1, human Topo I (Homo sapiens, UniProt P11387); experiment: Human Topoisomerase I relaxation high-throughput plate assay (fluorescent DNA stain); type: biochemical
T1 construct: gene TOP1
T1 sequence (P11387 2-765): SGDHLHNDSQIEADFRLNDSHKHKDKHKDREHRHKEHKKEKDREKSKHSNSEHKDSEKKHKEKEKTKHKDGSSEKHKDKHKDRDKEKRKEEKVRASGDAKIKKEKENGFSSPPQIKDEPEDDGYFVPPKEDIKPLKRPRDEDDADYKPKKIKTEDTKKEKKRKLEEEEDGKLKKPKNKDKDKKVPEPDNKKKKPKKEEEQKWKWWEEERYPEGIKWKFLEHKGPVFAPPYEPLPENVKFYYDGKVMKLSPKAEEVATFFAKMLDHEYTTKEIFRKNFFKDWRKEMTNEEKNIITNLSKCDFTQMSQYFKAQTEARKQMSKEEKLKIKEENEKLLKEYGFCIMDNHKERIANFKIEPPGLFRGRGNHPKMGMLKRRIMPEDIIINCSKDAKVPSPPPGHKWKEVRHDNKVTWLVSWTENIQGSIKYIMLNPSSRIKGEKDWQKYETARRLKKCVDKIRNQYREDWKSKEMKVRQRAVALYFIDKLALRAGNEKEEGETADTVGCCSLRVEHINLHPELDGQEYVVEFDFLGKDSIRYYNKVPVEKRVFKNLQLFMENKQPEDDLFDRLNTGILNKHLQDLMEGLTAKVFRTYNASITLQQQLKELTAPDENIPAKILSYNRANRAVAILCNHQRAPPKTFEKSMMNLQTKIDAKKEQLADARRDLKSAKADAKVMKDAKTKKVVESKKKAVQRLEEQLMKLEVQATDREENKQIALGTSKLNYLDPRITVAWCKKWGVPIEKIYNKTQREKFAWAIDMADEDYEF

[1] = system: nicked decamer 2B (DNA, duplex, nick between T5 and G6) GCGTT/GTCGC/GCGACAACGC; experiment: MALDI-ToF MS; conditions: covalent; alkylated product m/z 7296.2 in reaction mother liquor
[2] = system: nicked decamer 2B (DNA, duplex, nick between T5 and G6) GCGTT/GTCGC/GCGACAACGC; experiment: NOESY/TOCSY NMR; conditions: 25 mM NaCl, 25 mM K3PO4; D2O, pH 6, 298 K; stacking at the nick, intermolecular NOEs
[3] = system: nicked decamer 2B (DNA, duplex, nick between T5 and G6) GCGTT/GTCGC/GCGACAACGC; experiment: DOSY NMR diffusion; conditions: 25 mM NaCl, 25 mM K3PO4; D2O, pH 6, 298 K; 0.33 mM each; single-point from diffusion coefficients

IC50 (human Topo I; read-out: SN38) | SMILES | binding [1] | binding [2] | Ka [3] | IC50 (human Topo I)
7.37 ± 7.1 µM | CCc1c2c(nc3ccc(O)cc13)-c1cc3c(c(=O)n1C2)COC(=O)[C@]3(O)CC [SN38, reference compound] |  |  |  | 
 | CCc1c2c(nc3ccc(O)c(CNCCO)c13)-c1cc3c(c(=O)n1C2)COC(=O)[C@]3(O)CC [compound 1, 7-ethyl-9-[N-(2′-hydroxyethyl)amino]methyl-10-hydroxycamptothecin] | yes | yes | 746.0 mM⁻¹ | 1.73 ± 0.48 µM
